Measurements as given in patent US20190031618A1, “BENZIMIDAZOLE DERIVATIVES USEFUL AS CB-1 INVERSE AGONISTS” (Janssen Pharmaceutica NV, priority 2015, published 2019).

What was measured:
[1] = target: Human CB1R (Cannabinoid receptor 1) (Homo sapiens, UniProt P21554); test: CB-1 in vitro cAMP (HTRF) assay; assay type: cell-based; details: HEK cells, cAMP HTRF, 250 nM forskolin; mean where tested more than once; read-out: CB1 HEK_cAMP EC50
Source text: (§1) CB1 and CB2 receptors are Gi-coupled GPCR. Activation of CB1 and CB2 receptors results in a decrease in cAMP production. An inverse agonist of the CB1 or CB2 receptor results in the opposite effect, an increase of cAMP production. The principle of this assay is based on HTRF® technology (Homogeneous Time-Resolved Fluorescence). The method is a competitive immunoassay between native cAMP produced by cells and the cAMP labeled with the fluorophore d2. The tracer binding is quantified by a Mab anti-cAMP labeled with Eu3+TBP-NHS Cryptate (supplied as part of the assay kit). The specific signal (i.e. energy transfer) is inversely proportional to the concentration of cAMP in the standard or sample.
Human CB1R (Cannabinoid receptor 1) was stably transfected in HEK-293 cells (DiscoveRx, cat: 93-0200C1). Human CB2R (Cannabinoid receptor 2) was stably transfected in HEK-293 cells (DiscoveRx, cat: 93-0201C1).
One day prior to experiments media was warmed to 37° C. and the cryo-stored cells were thawed in a 37° C. water bath. The cells were then added to media (10× volume) and the mixture was centrifuged at 1000 RPM for 5 min. The supernate was removed and the cells were re-suspended in media. A sample of the cell suspension was evaluated on a Cedex XS automated cell counter (Innovatis Systems) to determine viable cells/ml. Additional media was added to the cells to achieve a final cell density of 4E5 cells/mL. […] Cells were removed from Row P (location of cAMP standards). […] The cell plates were lidded and stored for 15 minutes in a hood, then transferred to an incubator (37° C., 5% CO2, 95% humidity) overnight.
Test compounds (60 μL, 10 mM) were added to Column 1 and 13 (A1 through N1 and A13 through L13). Test compounds were serially diluted 1/3 by transferring and mixing 20 μl sample with 40 μL DMSO.
DMSO (40 μL) was added to wells of 384 well V bottom polystyrene plate: O2 through O11, M14 through M23, N14 through N23, and O14 through O23. […] The control was serially diluted 1/3 by transferring and mixing 20 μl sample with 40 μL DMSO. This process resulted 11 doses per control, 10 mM to 0.5 μM.
Cells plated the day prior to the assay in clear bottom plates were viewed on an inverse microscope to ensure confluency in the range of 60-75%.
A FLEXDROP (Perkin Elmer) was cleaned with ethanol then water, and primed with Buffer 2. A 384 well V bottom polypropylene plate containing d2 labelled cAMP and a second 384 well V bottom polypropylene plate containing anti-cAMP was prepared (50 μl per well). Media as “dumped” from the cell plate and 30 μL Buffer 1 was added to each well using a Multidrop. The content of the cell plate was again “dumped” and 10 μL Buffer 2 was added to each well using a Flexdrop. […] The cell plate was mixed (Speed 6, Lab-Line Instruments Titer Plate Shaker) and centrifuged (1000 RPMs, 1 min). […] The cell plate was again mixed (speed 6) and centrifuged (1000 RPMs, 1 min). The cell plate was incubated for 30 minutes at room temperature (˜27° C.). The contents of row P were removed and the cAMP standard dilutions were added in duplicate to Row P (P1-12 and P13-24). After incubation, 6 μL d2 labelled cAMP and 6 μL of Anti-cAMP were added to all wells of the cell plate using a BioMek FX (Beckman Coulter). The cell plate was again mixed (speed 6) and centrifuged (1000 RPMs, 1 min) and was incubated for 60 minutes in the dark at room Temp (˜27° C.).
After this final incubation, the cell plate was read in HTRF mode (fluorescence at 665 nm and 620 nm) on an Envision plate Reader (Perkin Elmer). The Envision reader outputs a ratio of channel 1/channel 2 fluorescence×10,000 (Normalized signal (NS)). Amount of cAMP in nM was calculated for each well (based on NS) from a cAMP standard curve located on each plate (at P1-12 and P13-24). EC50 values were determined from a 4-point fit (Hill equation) of a single 11-point compound dosing. Hill slope was fixed at 1.0.

[2] = target: Human CB2R (Cannabinoid receptor 2) (Homo sapiens, UniProt P34972); test: CB-2 in vitro cAMP (HTRF) assay; assay type: cell-based; details: HEK cells, cAMP HTRF, 250 nM forskolin; mean where tested more than once; read-out: CB2 HEK_cAMP EC50
Chain of Human CB2R (Cannabinoid receptor 2) (P34972 whole entry): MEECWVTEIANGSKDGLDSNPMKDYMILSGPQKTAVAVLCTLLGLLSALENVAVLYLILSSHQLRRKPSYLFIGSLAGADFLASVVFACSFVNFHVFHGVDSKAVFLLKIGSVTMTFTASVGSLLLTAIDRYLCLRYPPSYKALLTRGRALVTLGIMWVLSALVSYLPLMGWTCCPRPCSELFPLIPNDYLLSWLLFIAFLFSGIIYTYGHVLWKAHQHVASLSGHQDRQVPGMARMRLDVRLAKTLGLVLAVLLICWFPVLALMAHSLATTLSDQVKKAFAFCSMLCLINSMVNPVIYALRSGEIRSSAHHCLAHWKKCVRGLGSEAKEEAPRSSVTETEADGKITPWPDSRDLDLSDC
Source text: as §1
Human CB1R (Cannabinoid receptor 1) was stably transfected in HEK-293 cells (DiscoveRx, cat: 93-0200C1). Human CB2R (Cannabinoid receptor 2) was stably transfected in HEK-293 cells (DiscoveRx, cat: 93-0201C1). Cell cultures were maintained in media: DMEM (Invitrogen Cat#12430-054) supplemented with 10% HI FBS (Invitrogen Cat#16140-071), 1% L-glutamine (Invitrogen Cat#25030-081), 0.2 mg/ml Hygromycin B (Invitrogen Cat#10687-010), 600 μg/mL G418 (Invitrogen Cat#10131-035), and 1× Penn/Strep (Invitrogen 15140-122). After cell expansion, aliquots were cryo-stored in media containing 5% DMSO (Pierce Cat#20684).
One day prior to experiments media was warmed to 37° C. and the cryo-stored cells were thawed in a 37° C. water bath. The cells were then added to media (10× volume) and the mixture was centrifuged at 1000 RPM for 5 min. The supernate was removed and the cells were re-suspended in media. A sample of the cell suspension was evaluated on a Cedex XS automated cell counter (Innovatis Systems) to determine viable cells/ml. Additional media was added to the cells to achieve a final cell density of 4E5 cells/mL. The cells were then plated into 384 well PDL white solid bottom plates (Greiner, Cat#781945) at 20 μL per well using a Multidrop (Thermo Scientific). Cells were removed from Row P (location of cAMP standards). Two columns of cells were plated into a clear bottom 384 well PDL coated plate (Greiner, Cat#781944) to view confluence the day of the assay. The cell plates were lidded and stored for 15 minutes in a hood, then transferred to an incubator (37° C., 5% CO2, 95% humidity) overnight.
DMSO was added to all wells of 384 well V bottom polystyrene plate (Greiner, Cat#781280) except to columns 1 and 13, rows O and P and wells M13-M23 and N13-N23. Test compounds (60 μL, 10 mM) were added to Column 1 and 13 (A1 through N1 and A13 through L13). Test compounds were serially diluted 1/3 by transferring and mixing 20 μl sample with 40 μL DMSO.
DMSO (40 μL) was added to wells of 384 well V bottom polystyrene plate: O2 through O11, M14 through M23, N14 through N23, and O14 through O23. AM630 (also known as [6-iodo-2-methyl-1-[2-(4-morpholinyl)ethyl]-1H-indol-3-yl](4-methoxyphenyl)-methanone, Cayman Chemical, Cat#10006974) (60 μL, 10 mM) was added to O1; and 1-(2,4-dichlorophenyl)-7-[(4-fluorophenyl)methylene]-4,5,6,7-tetrahydro-N-1-piperidinyl-1H-benzimidazole-3-carboxamide (60 μL, 10 mM) was added to N13. The control was serially diluted 1/3 by transferring and mixing 20 μl sample with 40 μL DMSO. This process resulted 11 doses per control, 10 mM to […].
Cells plated the day prior to the assay in clear bottom plates were viewed on an inverse microscope to ensure confluency in the range of 60-75%. […]

Chain of Human CB1R (Cannabinoid receptor 1) (P21554 whole entry): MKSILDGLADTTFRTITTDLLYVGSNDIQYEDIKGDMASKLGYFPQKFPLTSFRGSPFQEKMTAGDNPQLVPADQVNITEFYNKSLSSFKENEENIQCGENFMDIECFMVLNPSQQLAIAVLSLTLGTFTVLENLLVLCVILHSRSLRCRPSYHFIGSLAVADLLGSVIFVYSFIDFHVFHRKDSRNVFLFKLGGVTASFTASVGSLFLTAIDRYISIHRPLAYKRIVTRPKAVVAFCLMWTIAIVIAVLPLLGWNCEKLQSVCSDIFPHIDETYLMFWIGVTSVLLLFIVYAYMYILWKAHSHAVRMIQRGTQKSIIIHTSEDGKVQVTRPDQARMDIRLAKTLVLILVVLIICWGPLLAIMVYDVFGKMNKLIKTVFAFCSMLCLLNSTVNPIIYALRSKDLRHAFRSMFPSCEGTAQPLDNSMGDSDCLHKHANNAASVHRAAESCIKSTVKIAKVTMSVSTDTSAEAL

Row | EC50 [1] [µM] | EC50 [2] [µM] | SMILES
1 | 0.0505 | > 10 | NC(=O)CC(=O)N1CCC(n2c(C3CC3)nc3ccc(C(c4ccc(Cl)cc4)c4ccc(Cl)cc4)cc32)CC1 [Example 278]
2 | 0.0518 | > 10 | COc1ccc(S(=O)(=O)N2CCC(n3c(C4CC4)nc4ccc(C(c5ccc(Cl)cc5)c5ccc(Cl)cc5)cc43)CC2)cc1C(N)=O [Example 187]
3 | 0.0114 | 2.85 | O=C(O)c1ccc(N2CCC(Cn3c(C4CC4)nc4ccc(C(c5ccc(Cl)cc5)c5ccc(Cl)cc5)cc43)CC2)cc1 [Example 1]
4 | 0.0322 | > 10 | O=S(=O)(c1ccc(OC(F)(F)F)cc1)N1CCC(n2c(C3CC3)nc3ccc(C(c4ccc(Cl)cc4)c4ccc(Cl)cc4)cc32)CC1 [Example 279]
5 | 0.005 | 1.71 | NC(=O)COc1ccc(S(=O)(=O)N2CCC(n3c(C4CC4)nc4ccc(C(c5ccc(Cl)cc5)c5ccc(Cl)cc5)cc43)CC2)cc1 [Example 249]
6 | 0.0949 | 6.74 | Clc1ccc(C(c2ccc(Cl)cc2)c2ccc3nc(C4CC4)n(C4CCOCC4)c3c2)cc1 [Example 119]
7 | 0.0073 | > 10 | O=S(=O)(c1ccc(F)cc1)N1CCC(n2c(C3CC3)nc3ccc(C(c4ccc(Cl)cc4)c4ccc(Cl)cc4)cc32)CC1 [Example 282]
8 | 0.101 | > 10 | Cc1cc(S(=O)(=O)N2CCC(n3c(C4CC4)nc4ccc(C(c5ccc(Cl)cc5)c5ccc(Cl)cc5)cc43)CC2)ccc1C(N)=O [Example 206]
9 | 0.0219 | > 10 | COc1cccc(S(=O)(=O)N2CCC(n3c(C4CC4)nc4ccc(C(c5ccc(Cl)cc5)c5ccc(Cl)cc5)cc43)CC2)c1 [Example 261]
10 | 0.0919 | 5.9 | NS(=O)(=O)c1ccc(C(=O)N2CCC(n3c(C4CC4)nc4ccc(C(c5ccc(Cl)cc5)c5ccc(Cl)cc5)cc43)CC2)cc1 [Example 230]
11 | 0.311 | 8 | O=C(O)COc1cccc(N2CCC(n3c(C4CC4)nc4ccc(C(c5ccc(Cl)cc5)c5ccc(Cl)cc5)cc43)CC2)c1 [Example 154]
12 | 0.0215 | > 10 | Oc1cccc(N[C@H]2CC[C@H](n3c(C4CC4)nc4ccc(C(c5ccc(Cl)cc5)c5ccc(Cl)cc5)cc43)CC2)c1 [Example 28]
13 | 1.03 | > 10 | O=C(O)CCC(=O)N1CCC(n2c(C3CC3)nc3ccc(C(c4ccc(Cl)cc4)c4ccc(Cl)cc4)cc32)CC1 [Example 269]

The remaining lines, values behind:

Row | SMILES | EC50 [1] [µM] | EC50 [2] [µM]
14 | OCc1nc2ccc(C(c3ccc(Cl)cc3)c3nccs3)cc2n1-c1cccc(Cl)c1 (centres unmarked) [Example 374] | 1.12 | > 10
15 | NC(=O)c1cncc(CN2CCC(n3c(C4CC4)nc4ccc(C(c5ccc(Cl)cc5)c5ccc(Cl)cc5)cc43)CC2)c1 [Example 121] | 0.0051 | 7.97
16 | Clc1ccc(Cn2cnc3ccc(C(c4ccc(Cl)cc4)c4nccs4)cc32)cc1 (centres unmarked) [Example 466] | > 8.7 | 1.43
17 | CCOC(=O)N1CCC(n2c(C(C)(C)C)nc3ccc(C(c4ccc(Cl)cc4)c4nccs4)cc32)CC1 (centres unmarked) [Example 408] | 3.15 | > 10
18 | CC(C)(C)c1nc2ccc(C(O)(c3ccc(Cl)cc3)c3ccc(Cl)cc3)cc2n1C1CCN(S(=O)(=O)C(F)(F)F)CC1 [Example 292] | 2.89 | > 10
19 | CCOC(=O)N1CCC(n2c(N)nc3ccc(C(c4ccc(Cl)cc4)c4nccs4)cc32)CC1 (centres unmarked) [Example 440] | 0.999 | > 10
20 | Clc1ccc(C(c2ccc3nc(C4CC4)n(CCc4cccc(Cl)c4)c3c2)c2nccs2)cc1 (centres unmarked) [Example 423] | 0.017 | > 10
21 | O=S(=O)(N1CCC(n2c(-c3cccnc3)nc3ccc(C(c4ccc(Cl)cc4)c4nccs4)cc32)CC1)C(F)(F)F (centres unmarked) [Example 393] | 0.028 | 0.063
22 | O=C(O)c1ccnc(CN2CCC(n3c(C4CC4)nc4ccc(C(c5ccc(Cl)cc5)c5ccc(Cl)cc5)cc43)CC2)c1 [Example 88] | 0.033 | > 10
23 | O=C(O)c1ccc(CCn2c(C3CC3)nc3ccc(C(c4ccc(Cl)cc4)c4ccc(Cl)cc4)cc32)cc1 [Example 38] | 4.3 | 1.7
24 | Clc1ccc(-c2nc3ccc(C(c4ccc(Cl)cc4)c4nccs4)cc3n2C2CCCCC2)cc1 (centres unmarked) [Example 442] | 3.4 | > 10
25 | O=C(O)c1cc(CN2CCC(n3c(C4CC4)nc4ccc(C(c5ccc(Cl)cc5)c5ccc(Cl)cc5)cc43)CC2)ccc1O [Example 81] | 0.0141 | 3.2
26 | CCCc1nc2ccc(C(c3ccc(Cl)cc3)c3nccs3)cc2n1-c1cccc(Cl)c1 (centres unmarked) [Example 431] | 0.111 | > 10
27 | COc1ccccc1S(=O)(=O)N1CCC(n2c(C3CC3)nc3ccc(C(c4ccc(Cl)cc4)c4ccc(Cl)cc4)cc32)CC1 [Example 275] | 0.0016 | > 10
28 | O=C(O)c1cccc(CN2CCC(n3c(C4CC4)nc4ccc(C(c5ccc(F)cc5)c5ccc(F)cc5)cc43)CC2)c1 [Example 97] | 0.0187 | > 10
